Experimental data reported in article PMC8662641, “Site-Specific Labeling of Endogenous Proteins Using CoLDR Chemistry” (Journal of the American Chemical Society, 2021).

biological target: T1, BTK-1h (Homo sapiens, UniProt Q06187); test: High-throughput screening with 1h-labeled BTK; assay type: binding; conditions: Dataset S2A; 200 μM compound, BTK-1h, 32 °C, 10 min
T1 construct: The BTK kinase domain was diluted to 2 μM in the buffer, and 2 μM 1h was added; made in house
Description: The collection was composed of BTK binding compounds obtained in our previous luminescence screen[37] (Data set S2). […] The resulting BTK-1h (50 μL) was added to the inhibitors.

T1 sequence (Q06187 402-655): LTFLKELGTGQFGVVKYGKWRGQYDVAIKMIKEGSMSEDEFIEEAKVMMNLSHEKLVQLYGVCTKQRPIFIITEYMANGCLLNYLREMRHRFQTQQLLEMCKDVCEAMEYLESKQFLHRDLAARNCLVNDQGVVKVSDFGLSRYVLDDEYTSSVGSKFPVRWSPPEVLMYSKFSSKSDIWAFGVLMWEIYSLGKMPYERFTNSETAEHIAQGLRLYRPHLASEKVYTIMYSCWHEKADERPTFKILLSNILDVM

Structure (SMILES)	FI (650)/FI (620)	FI (BTK-1h)/FI (BTK-1h+Inhibitor) at 620 nm
CN(CC(=O)N(Cc1ccc(C2CCCCC2)cc1)c1ccc(C(=O)O)cc1)S(=O)(=O)c1c(F)c(F)c(F)c(F)c1F [PCM-0095763-002]	1.026	1.04
O=C(/C=C/c1ccc(O)c(O)c1)c1ccc(O)cc1O [PCM-0095622-002]	1.0597	1.03
CC(=O)Nc1nc(-c2cccc(NS(=O)(=O)c3cccc4c(N(C)C)cccc34)c2)cs1 [PCM-0215679-001]	1.491	1.033
Nc1ccc(O)cc1 [PCM-0216110-001]	1.311	1.005
O=C1NC(=O)C(c2cnc3ccccn23)=C1c1cn2c3c(cc(F)cc13)CN(C(=O)N1CCCCC1)CC2 [PCM-0215438-001]	0.9847	1.0465
CN1CCN(Cc2ccc(NC(=O)Nc3ccc(Oc4cc(NC(=O)C5CC5)ncn4)cc3)cc2C(F)(F)F)CC1 [PCM-0215388-001]	1.014	1.145
CCCCCC/C=C\CCCCCCCc1cccc(O)c1C(=O)O [PCM-0216327-001]	3.101	1.308
CN(Cc1ccc(C(C)(C)C)cc1)Cc1cccc2ccccc12.Cl [PCM-0086068-001]	0.9972	1.029
COc1ccc2c(O[C@@H]3C[C@H]4C(=O)N[C@]5(C(=O)NS(=O)(=O)C6CC6)C[C@H]5/C=C\CCCCN(C)C(=O)[C@@H]4C3)cc(-c3nc(C(C)C)cs3)nc2c1C [PCM-0215097-001]	0.9923	1.053
COC1=CC(=O)c2ccccc2C1=O [PCM-0214886-001]	0.9979	1.038
CC1=C(C(=O)OC(C)C)C(c2cccc([N+](=O)[O-])c2)C(C(=O)OC2CN(C(c3ccccc3)c3ccccc3)C2)=C(N)N1 (centres unmarked) [PCM-0095544-002]	1.1262	1.0184
O=C(O)c1ccc(N2C(=O)/C(=C/c3ccc(-c4ccc([N+](=O)[O-])cc4)o3)C=C2c2ccccc2)cc1 [PCM-0095764-003]	1.233	0.999
COc1cc(N2CCC(N3CCN(C)CC3)CC2)ccc1Nc1ncnc(Nc2ccccc2S(=O)(=O)C(C)C)n1 [PCM-0215273-001]	1.877	1.327
COc1cc(-c2oc3cc(O)cc(O)c3c(=O)c2O)ccc1O [PCM-0216402-001]	1.5271	1.051
Cc1ccc(NC(=O)Nc2cc(C(F)(F)F)ccc2F)cc1Nc1ccc2c(c1)NC(=O)/C2=C\c1ccc[nH]1 [PCM-0215372-001]	1.5507	1.003
COc1cc(C[C@H](C)[C@H](C)Cc2ccc3c(c2)OCO3)ccc1O [PCM-0216424-001]	0.9224	1.025
COCCCc1sc(-c2ccccc2)nc1C(=O)Nc1ccccc1-c1nc2cc(CN3CCCC3)cnc2s1.Cl [PCM-0215812-001]	0.6133	1.029
COc1cc(N2CCC(N(C)C)CC2)ccc1Nc1ncc(Cl)c(Nc2ccccc2P(C)(C)=O)n1 [PCM-0215177-001]	1.083	1.158

tested on: not listed separately; test: GSH reactivity assay; assay type: physicochemical; conditions: 100 μM compound, 5 mM GSH, pH 8, 14 °C
Description: A 100 μM (0.5 μL of a 20 mM stock) sample of the electrophile (1a–1m) was incubated with 5 mM GSH (5 μL of a 100 mM stock, freshly dissolved), 5 mM NaOH (to counter the acidity imparted by GSH), and 100 μM 4-nitrocyanobenzene (0.5 μL of a 20 mM stock solution) as an internal standard in 100 mM potassium phosphate buffer pH 8.0 and DMF at a ratio of 9:1, respectively. All solvents were bubbled with argon. Reaction mixtures were kept at 14 °C. Every 1 h 5 μL from the reaction mixture was injected into the LC/MS. The reaction was followed by the peak area of the electrophile normalized by the area of the 4-nitrocyanobenzene (i.e., by the disappearance of the starting material). The natural logarithm of the results was fitted to linear regression, and t1/2 was calculated as t1/2 = ln 2/–slope.

Structure (SMILES)	time to complete reaction with GSH [min]
C=C(CN1CCC[C@@H](n2nc(-c3ccc(Oc4ccccc4)cc3)c3c(N)ncnc32)C1)C(=O)OCC [1a]	≤ 10

same assay, conditions: 5 mM GSH in potassium phosphate buffer/DMF, 100 μM compound, pH 8, read-out: GSH t1/2

Structure (SMILES)	half-life at 100 μM [days]
C=C(CN1CCC[C@@H](n2nc(-c3ccc(Oc4ccccc4)cc3)c3c(N)ncnc32)C1)C(=O)OCC [1a]	< 0.00694
C#CCCCCC(=O)NC1CCN(C(=O)C(=C)CN2CCC[C@@H](n3nc(-c4ccc(Oc5ccccc5)cc4)c4c(N)ncnc43)C2)CC1 [1d]	> 4.17

same assay, conditions: 5 mM GSH, pH 8

Structure (SMILES)	less reactive toward GSH than ibrutinib [fold]
C#CCCCCC(=O)NC1CCN(C(=O)C(=C)CN2CCC[C@@H](n3nc(-c4ccc(Oc5ccccc5)cc4)c4c(N)ncnc43)C2)CC1 [1d]	> 20

tested on: not listed separately; test: Buffer stability assay; assay type: physicochemical; conditions: PBS buffer pH 8, 37 °C
Description: A sample of 100 μM of the electrophile (1a–1p) was incubated with 100 μM 4-nitrocyanobenzene as an internal standard in a 100 mM potassium phosphate buffer of pH 8.0. All solvents were bubbled with argon. Reaction mixtures were kept at 37 °C with shaking. After 4 days (unless otherwise mentioned), 5 μL from the reaction mixture was injected into the LC/MS to check the stability of the compounds.

Structure (SMILES)	water adduct formed [%]
C=C(CN1CCC[C@@H](n2nc(-c3ccc(Oc4ccccc4)cc3)c3c(N)ncnc32)C1)C(=O)NCCOCCOCCOCCOCCC(=O)Nc1cccc2c1CN(C1CCC(=O)NC1=O)C2=O (some centres unmarked) [1p]	5

same assay, conditions: PBS buffer pH 8, 37 °C, in two days

Structure (SMILES)	hydrolysis/elimination [%]
C=C(CN1CCC[C@@H](n2nc(-c3ccc(Oc4ccccc4)cc3)c3c(N)ncnc32)C1)C(=O)OCC [1a]	100

same assay, conditions: phosphate buffer pH 8, 37 °C, after 4 days

Structure (SMILES)	Ibr-H elimination [%]
C=C(CN1CCC[C@@H](n2nc(-c3ccc(Oc4ccccc4)cc3)c3c(N)ncnc32)C1)C(=O)NCCN [1e]	25

same assay, conditions: phosphate buffer pH 8, 37 °C, in 2 days

Structure (SMILES)	elimination [%]	hydrolysis [%]
C=C(CN1CCC[C@@H](n2nc(-c3ccc(Oc4ccccc4)cc3)c3c(N)ncnc32)C1)C(=O)OCC [1a]	50	50

biological target: T2, BTK (Homo sapiens, UniProt Q06187); test: In-gel fluorescence labeling profile in Mino cells; conditions: 2 h incubation, in-gel fluorescence
Target sequence in this assay (Q06187 whole entry): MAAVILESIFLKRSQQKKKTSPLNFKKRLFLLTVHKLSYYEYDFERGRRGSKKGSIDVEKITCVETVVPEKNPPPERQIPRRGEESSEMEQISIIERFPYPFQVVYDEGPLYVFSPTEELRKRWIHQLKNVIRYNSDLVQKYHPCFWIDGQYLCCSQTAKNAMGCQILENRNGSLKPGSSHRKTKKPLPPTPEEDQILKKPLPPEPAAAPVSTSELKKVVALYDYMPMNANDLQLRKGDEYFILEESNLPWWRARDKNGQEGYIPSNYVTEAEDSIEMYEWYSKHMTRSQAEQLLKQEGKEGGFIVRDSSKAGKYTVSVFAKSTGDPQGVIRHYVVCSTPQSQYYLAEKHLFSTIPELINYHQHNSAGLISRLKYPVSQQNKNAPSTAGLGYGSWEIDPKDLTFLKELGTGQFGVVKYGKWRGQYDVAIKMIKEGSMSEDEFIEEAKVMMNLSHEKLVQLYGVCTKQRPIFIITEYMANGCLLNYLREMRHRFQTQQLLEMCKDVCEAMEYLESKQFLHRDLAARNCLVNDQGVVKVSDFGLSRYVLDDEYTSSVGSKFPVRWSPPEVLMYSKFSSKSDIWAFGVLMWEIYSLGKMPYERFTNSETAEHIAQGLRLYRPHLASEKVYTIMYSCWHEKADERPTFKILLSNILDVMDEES

Structure (SMILES)	labeling of BTK in live Mino cells
C#CCCCCC(=O)NC1CCN(C(=O)C(=C)CN2CCC[C@@H](n3nc(-c4ccc(Oc5ccccc5)cc4)c4c(N)ncnc43)C2)CC1 [1d]	labeled BTK with more selectivity

biological target: T2, BTK; test: not given; set-up: BTK kinase domain was expressed and purified as previously reported; made in house; method as in Reddi et al., J. Am. Chem. Soc. 2021, 143 (13), 4979–4992; conditions: ref Reddi et al., J. Am. Chem. Soc. 2021, 143 (13), 4979–4992; cited from earlier work
Target sequence in this assay (Q06187 402-655 limits assumed): as the sequence (Q06187 402-655) above

Structure (SMILES)	BTK Inhibition reported in luminescence assay*
CN(CC(=O)N(Cc1ccc(C2CCCCC2)cc1)c1ccc(C(=O)O)cc1)S(=O)(=O)c1c(F)c(F)c(F)c(F)c1F [PCM-0095763-002]	68.7
O=C(/C=C/c1ccc(O)c(O)c1)c1ccc(O)cc1O [PCM-0095622-002]	55.2
CC(=O)Nc1nc(-c2cccc(NS(=O)(=O)c3cccc4c(N(C)C)cccc34)c2)cs1 [PCM-0215679-001]	97.3
Nc1ccc(O)cc1 [PCM-0216110-001]	82.6
O=C1NC(=O)C(c2cnc3ccccn23)=C1c1cn2c3c(cc(F)cc13)CN(C(=O)N1CCCCC1)CC2 [PCM-0215438-001]	80
CN1CCN(Cc2ccc(NC(=O)Nc3ccc(Oc4cc(NC(=O)C5CC5)ncn4)cc3)cc2C(F)(F)F)CC1 [PCM-0215388-001]	79.5
CCCCCC/C=C\CCCCCCCc1cccc(O)c1C(=O)O [PCM-0216327-001]	84.2
CN(Cc1ccc(C(C)(C)C)cc1)Cc1cccc2ccccc12.Cl [PCM-0086068-001]	62.3
COc1ccc2c(O[C@@H]3C[C@H]4C(=O)N[C@]5(C(=O)NS(=O)(=O)C6CC6)C[C@H]5/C=C\CCCCN(C)C(=O)[C@@H]4C3)cc(-c3nc(C(C)C)cs3)nc2c1C [PCM-0215097-001]	55.6
COC1=CC(=O)c2ccccc2C1=O [PCM-0214886-001]	85.6
CC1=C(C(=O)OC(C)C)C(c2cccc([N+](=O)[O-])c2)C(C(=O)OC2CN(C(c3ccccc3)c3ccccc3)C2)=C(N)N1 (centres unmarked) [PCM-0095544-002]	70
O=C(O)c1ccc(N2C(=O)/C(=C/c3ccc(-c4ccc([N+](=O)[O-])cc4)o3)C=C2c2ccccc2)cc1 [PCM-0095764-003]	98.1
COc1cc(N2CCC(N3CCN(C)CC3)CC2)ccc1Nc1ncnc(Nc2ccccc2S(=O)(=O)C(C)C)n1 [PCM-0215273-001]	89
COc1cc(-c2oc3cc(O)cc(O)c3c(=O)c2O)ccc1O [PCM-0216402-001]	73.4
Cc1ccc(NC(=O)Nc2cc(C(F)(F)F)ccc2F)cc1Nc1ccc2c(c1)NC(=O)/C2=C\c1ccc[nH]1 [PCM-0215372-001]	115.9
COc1cc(C[C@H](C)[C@H](C)Cc2ccc3c(c2)OCO3)ccc1O [PCM-0216424-001]	68.7
COCCCc1sc(-c2ccccc2)nc1C(=O)Nc1ccccc1-c1nc2cc(CN3CCCC3)cnc2s1.Cl [PCM-0215812-001]	57.9
COc1cc(N2CCC(N(C)C)CC2)ccc1Nc1ncc(Cl)c(Nc2ccccc2P(C)(C)=O)n1 [PCM-0215177-001]	64.8

biological target: T2, BTK; test: Degradation of BTK by a CoLDR PROTAC in Mino cells; assay type: cell-based; set-up: We incubated Mino B cells with probes containing different tags; endogenous in cells; host or cells: Mino cells; conditions: Mino cells pretreated 2 h before PROTAC 24 h
Target sequence in this assay (Q06187 whole entry): as the sequence (Q06187 whole entry) above
Description: Cell pellets were washed with ice-cold PBS and lysed using RIPA buffer (Sigma, R0278). […] Samples containing 50 μg of total protein were prepared with 4× LDS sample buffer (NuPAGE, Thermo Fischer Scientific, NP0007) and were then resolved on a 4–20% Bis-Tris gel (GeneScript SurePAGE, M00657). […] The EZ-ECL kit (Biological Industries, 20-500-1000) was used to detect HRP activity.
Cells were harvested for subsequent analysis by immunoblotting of BTK and β-actin. Bands were quantified using ImageJ, BTK signal was normalized to β-actin, and levels in DMSO were defined as 100%. BTK levels versus concentrations were plotted, and the data were fitted to one-phase decay in Prism 8 to calculate the DC50.

Structure (SMILES)	rescue of 1n-induced BTK degradation
O=C1CCC(N2C(=O)c3cccc(O)c3C2=O)C(=O)N1 (centres unmarked) [thalidomide-OH]	able to rescue the degradation
